Values after ≈ are worked out from the molar mass of the structure shown.
Key:
Escherichia coli = assay: Antibacterial activity against Escherichia coli MTCC 51 by agar dilution method; format: functional
Salmonella typhi = assay: Antibacterial activity against Salmonella typhi MTCC 733 by agar dilution method; format: functional, Salmonella enterica subsp. enterica serovar Typhi; conditions: Salmonella enterica
[1] = test system: Staphylococcus epidermidis; assay: Antibacterial activity against Staphylococcus epidermidis MTCC 2639 by agar dilution method; format: functional
Staphylococcus aureus = assay: Antibacterial activity against Staphylococcus aureus MTCC 3160 by agar dilution method; format: functional
Bacillus subtilis = assay: Antibacterial activity against Bacillus subtilis MTCC 121 by agar dilution method; format: functional

SMILES	MIC (Escherichia coli) [µg/mL]	MIC (Salmonella typhi) [µg/mL]	MIC [1] [µg/mL]	MIC (Staphylococcus aureus) [µg/mL]	MIC (Bacillus subtilis) [µg/mL]
N[C@@H](C(=O)N[C@@H]1C(=O)N2C(C(=O)O)=C(Cl)CS[C@H]12)c1ccccc1 [CEFACLOR ANHYDROUS]	4 (≈ 10.9 µM)	8 (≈ 21.8 µM)	32 (≈ 87 µM)	16 (≈ 43.5 µM)	8 (≈ 21.8 µM)
C/C(=N\n1c(S)nnc(C)c1=O)c1ccccn1	16 (≈ 61.2 µM)	16 (≈ 61.2 µM)	32 (≈ 122 µM)	16 (≈ 61.2 µM)	8 (≈ 30.6 µM)
